Measurements from PubChem BioAssay AID256 (DTP/NCI, 2004).
Several values for one entry are separate records, joined by “and”; a condition that tells them apart may be missing. Equal values may be shown once. Toxic doses and inconclusive results are not listed. Rule for the calls: active = survival T/C of 150% or more; inactive = T/C below 125% in these data.

Tested on: CD2F1 mice, L1210 leukemia ip, survival T/C
Experiment: NCI In Vivo Anticancer Drug Screen. Data for tumor model L1210 Leukemia (intraperitoneal) in CD2F1 (CDF1) mice
Conditions: higher = longer survival
In short: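 Each value reflects a quotient of treated over vehicle control outcomes in mice with a transplanted tumor.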

[1] = endpoint: mean survival time, dose: 100.0 mg/kg/injection, schedule: Q04DX003 (ip), vehicle: saline with Tween-80
[2] = endpoint: mean survival time, dose: 400.0 mg/kg/injection, schedule: Q04DX003 (ip), vehicle: saline with Tween-80
[3] = endpoint: mean survival time, dose: 200.0 mg/kg/injection, schedule: Q04DX003 (ip), vehicle: saline with Tween-80
[4] = endpoint: mean survival time, dose: 6.25 mg/kg/injection, schedule: Q01DX009 (ip), vehicle: saline with Tween-80
[5] = endpoint: mean survival time, dose: 12.5 mg/kg/injection, schedule: Q01DX009 (ip), vehicle: saline with Tween-80
[6] = endpoint: mean survival time, dose: 25.0 mg/kg/injection, schedule: Q01DX009 (ip), vehicle: saline with Tween-80
[7] = endpoint: mean survival time, dose: 100.0 mg/kg/injection, schedule: Q01DX009 (ip), vehicle: saline with Tween-80
[8] = endpoint: mean survival time, dose: 200.0 mg/kg/injection, schedule: Q01DX009 (ip), vehicle: saline with Tween-80
[9] = endpoint: mean survival time, dose: 100.0 mg/kg/injection, schedule: Q04DX003 (ip), vehicle: Klucel (hydroxypropylcellulose) (HPC)
[10] = endpoint: mean survival time, dose: 200.0 mg/kg/injection, schedule: Q04DX003 (ip), vehicle: Klucel (hydroxypropylcellulose) (HPC)
[11] = endpoint: mean survival time, dose: 400.0 mg/kg/injection, schedule: Q04DX003 (ip), vehicle: Klucel (hydroxypropylcellulose) (HPC)
[12] = endpoint: mean survival time, dose: 400.0 mg/kg/injection, schedule: Q01DX009 (ip), vehicle: saline with Tween-80

Measured: T/C

CCCCNc1ncnc2c1cnn2C
inactive: endpoint: mean survival time, dose: 4.0 mg/kg/injection, schedule: Q01DX Z (ip), vehicle: saline 97 % of control | endpoint: mean survival time, dose: 8.0 mg/kg/injection, schedule: Q01DX Z (ip), vehicle: saline 96 % of control | endpoint: mean survival time, dose: 12.5 mg/kg/injection, schedule: Q01DX005 (ip), vehicle: saline with Tween-80 94 % of control | endpoint: mean survival time, dose: 16.0 mg/kg/injection, schedule: Q01DX Z (ip), vehicle: saline 100 % of control | endpoint: mean survival time, dose: 25.0 mg/kg/injection, schedule: Q01DX005 (ip), vehicle: saline with Tween-80 100 % of control | endpoint: mean survival time, dose: 31.0 mg/kg/injection, schedule: Q01DX Z (ip), vehicle: saline 103 % of control | endpoint: mean survival time, dose: 50.0 mg/kg/injection, schedule: Q01DX005 (ip), vehicle: saline with Tween-80 104 % of control | endpoint: mean survival time, dose: 100.0 mg/kg/injection, schedule: Q01DX005 (ip), vehicle: saline with Tween-80 98 % of control | endpoint: mean survival time, dose: 200.0 mg/kg/injection, schedule: Q01DX005 (ip), vehicle: saline with Tween-80 100 % of control | endpoint: median survival time, dose: 31.3 mg/kg/injection, schedule: Q01DX009 (ip), vehicle: saline 100 % of control | endpoint: median survival time, dose: 62.5 mg/kg/injection, schedule: Q01DX009 (ip), vehicle: saline 100 % of control | endpoint: median survival time, dose: 125.0 mg/kg/injection, schedule: Q01DX009 (ip), vehicle: saline 105 % of control

CN(N)c1nc2c(=O)[nH]c(N)nc2n1C1OC(CO)C(O)C1O (stereo unspecified)
inactive: endpoint: mean survival time, dose: 1.56 mg/kg/injection, schedule: Q01DX005 (ip), vehicle: water 101 % of control | endpoint: mean survival time, dose: 3.12 mg/kg/injection, schedule: Q01DX005 (ip), vehicle: water 101 % of control | endpoint: mean survival time, dose: 6.25 mg/kg/injection, schedule: Q01DX005 (ip), vehicle: water 101 % of control | endpoint: mean survival time, dose: 12.5 mg/kg/injection, schedule: Q01DX005 (ip), vehicle: water 98 % of control | endpoint: mean survival time, dose: 25.0 mg/kg/injection, schedule: Q01DX005 (ip), vehicle: water 103 % of control

CCN(CC)CC(=O)Nc1c(Cl)cccc1Cl
inactive: endpoint: mean survival time, dose: 100.0 mg/kg/injection, schedule: Q01DX009 (ip), vehicle: saline 98 % of control | endpoint: mean survival time, dose: 100.0 mg/kg/injection, schedule: Q04DX003 (ip), vehicle: saline 104 % of control | endpoint: mean survival time, dose: 200.0 mg/kg/injection, schedule: Q01DX009 (ip), vehicle: saline 92 % of control | endpoint: mean survival time, dose: 200.0 mg/kg/injection, schedule: Q04DX003 (ip), vehicle: saline 108 % of control | endpoint: mean survival time, dose: 400.0 mg/kg/injection, schedule: Q04DX003 (ip), vehicle: saline 102 % of control

O=C(CO)C(OC1OC(CO)C(O)C(O)C1O)C(O)C(O)CO (stereo unspecified)
inactive: endpoint: mean survival time, dose: 100.0 mg/kg/injection, schedule: Q01DX001 (ip), vehicle: saline 103 % of control | endpoint: mean survival time, dose: 200.0 mg/kg/injection, schedule: Q01DX001 (ip), vehicle: saline 97 % of control | endpoint: mean survival time, dose: 400.0 mg/kg/injection, schedule: Q01DX001 (ip), vehicle: saline 100 % of control

CC1(C)C/C(=C\c2ccccc2)C(=O)c2ccccc21
inactive: endpoint: mean survival time, dose: 100.0 mg/kg/injection, schedule: Q01DX009 (ip), vehicle: other 104 % of control | endpoint: mean survival time, dose: 200.0 mg/kg/injection, schedule: Q01DX009 (ip), vehicle: other 112 % of control | endpoint: mean survival time, dose: 400.0 mg/kg/injection, schedule: Q01DX009 (ip), vehicle: other 96 % of control

CCOC(=O)Nc1cc(=O)cc(NC(=O)OCC)[nH]1
inactive: endpoint: mean survival time, dose: 75.0 mg/kg/injection, schedule: Q04DX003 (ip), vehicle: saline 98 % of control | endpoint: mean survival time, dose: 150.0 mg/kg/injection, schedule: Q04DX003 (ip), vehicle: saline 97 % of control | endpoint: mean survival time, dose: 300.0 mg/kg/injection, schedule: Q04DX003 (ip), vehicle: saline 97 % of control

CC1CCCNC1 (stereo unspecified)
inactive: [1] 97 % of control | [2] 93 % of control

Cc1cccc(OP(=O)(c2ccccc2)c2ccccc2)c1
inactive: [1] 98 % of control | [3] 98 % of control | [2] 103 % of control

C=C[CH2][Sn]([CH2]C=C)([CH2]CCC)[CH2]CCC
inactive: [4] 95 % of control | [5] 100 % of control | [6] 94 % of control

COc1ccc(NC(=O)C(Cl)Cl)ccc1=O
inactive: [7] 96 % of control | [1] 97 % of control | [8] 95 % of control | [3] 92 % of control | [2] 98 % of control

O=C(Nc1cccc(O)c1)c1ccc([N+](=O)[O-])cc1
inactive: [9] 97 % of control | [10] 107 % of control | [11] 108 % of control

O=c1[nH]c(NCCc2ccccc2)c(Br)c(=O)[nH]1
inactive: endpoint: mean survival time, dose: 75.0 mg/kg/injection, schedule: Q01DX001 (ip), vehicle: saline with Tween-80 98 % of control | endpoint: mean survival time, dose: 150.0 mg/kg/injection, schedule: Q01DX001 (ip), vehicle: saline with Tween-80 102 % of control | endpoint: mean survival time, dose: 300.0 mg/kg/injection, schedule: Q01DX001 (ip), vehicle: saline with Tween-80 106 % of control

CC(=O)c1ccc(NCN2C(=O)c3ccccc3C2=O)cc1
inactive: [7] 96 % of control | [8] 98 % of control | [12] 98 % of control

Nc1nc(=O)n(CCCOc2ccccc2NC(=O)c2ccc(S(=O)(=O)F)cc2)cc1-c1ccc(Cl)c(Cl)c1
inactive: endpoint: mean survival time, dose: 50.0 mg/kg/injection, schedule: Q01DX001 (ip), vehicle: saline with Tween-80 96 % of control | endpoint: mean survival time, dose: 100.0 mg/kg/injection, schedule: Q01DX001 (ip), vehicle: saline with Tween-80 93 % of control | endpoint: mean survival time, dose: 200.0 mg/kg/injection, schedule: Q01DX001 (ip), vehicle: saline with Tween-80 93 % of control

CCOC1=C(C#N)CC2(CC1)c1ccccc1-c1ccccc12
inactive: [9] 96 % of control | [10] 102 % of control | [11] 101 % of control

COC(=O)c1ccccc1NC(=S)NC(=O)COc1ccccc1
inactive: [7] 97 % of control | [8] 95 % of control | [12] 98 % of control

Clc1ccc(N=Nc2ccc(Cl)cc2)cc1
inactive: endpoint: mean survival time, dose: 25.0 mg/kg/injection, schedule: Q04DX003 (ip), vehicle: saline with Tween-80 95 % of control | endpoint: mean survival time, dose: 50.0 mg/kg/injection, schedule: Q04DX003 (ip), vehicle: saline with Tween-80 95 % of control | [1] 92 % of control

CCCCCCCC/C=C\CCCCCCCCNP(=O)(OCCCCCCCCCCCC)OCCCCCCCCCCCC
inactive: endpoint: mean survival time, dose: 50.0 mg/kg/injection, schedule: Q04DX002 (ip), vehicle: saline with Tween-80 93 % of control | endpoint: mean survival time, dose: 100.0 mg/kg/injection, schedule: Q04DX002 (ip), vehicle: saline with Tween-80 96 % of control | endpoint: mean survival time, dose: 200.0 mg/kg/injection, schedule: Q04DX002 (ip), vehicle: saline with Tween-80 89 % of control | endpoint: mean survival time, dose: 400.0 mg/kg/injection, schedule: Q04DX002 (ip), vehicle: saline with Tween-80 100 % of control

C=C(C)COc1c(C)cc(C)cc1[N+](=O)[O-]
inactive: [7] 98 % of control | [8] 100 % of control | [12] 104 % of control

Cc1ccc2c(c1)N=C(Nc1ccccc1)N=S2(C)=O (stereo unspecified)
inactive: [4] 96 % of control and 104 % of control | [5] 100 % of control and 107 % of control | [6] 104 % of control | endpoint: mean survival time, dose: 50.0 mg/kg/injection, schedule: Q01DX009 (ip), vehicle: saline with Tween-80 90 % of control and 106 % of control | [7] 101 % of control | [8] 102 % of control

O=C(Nc1cccc(F)c1)c1ccco1
inactive: [9] 94 % of control | [10] 88 % of control | [11] 91 % of control

CC(C)CC(NC(=O)CCl)C(=O)O (stereo unspecified)
inactive: [7] 101 % of control | [1] 97 % of control | [8] 96 % of control | [3] 98 % of control | [12] 101 % of control | [2] 96 % of control

CCOc1ccc(Nc2ncnc3nc[nH]c23)cc1CN(CCCl)CCCl
inactive: endpoint: mean survival time, dose: 2.0 mg/kg/injection, schedule: Q01DX009 (ip), vehicle: saline sonified 116 % of control | endpoint: mean survival time, dose: 4.0 mg/kg/injection, schedule: Q01DX009 (ip), vehicle: saline sonified 117 % of control | endpoint: mean survival time, dose: 8.0 mg/kg/injection, schedule: Q01DX009 (ip), vehicle: saline sonified 116 % of control

COc1ccc2c(c1O)CNCC2c1ccc(O)c(C)c1 (stereo unspecified)
inactive: endpoint: mean survival time, dose: 75.0 mg/kg/injection, schedule: Q01DX001 (ip), vehicle: saline 98 % of control

COc1nc(=O)n(C2C=CC(=O)O2)cc1F (stereo unspecified)
inactive: endpoint: median survival time, dose: 6.25 mg/kg/injection, schedule: Q01DX009 (ip), vehicle: saline 98 % of control | endpoint: median survival time, dose: 12.5 mg/kg/injection, schedule: Q01DX009 (ip), vehicle: saline 100 % of control | endpoint: median survival time, dose: 25.0 mg/kg/injection, schedule: Q01DX009 (ip), vehicle: saline 108 % of control | endpoint: median survival time, dose: 50.0 mg/kg/injection, schedule: Q01DX009 (ip), vehicle: saline 108 % of control | endpoint: median survival time, dose: 100.0 mg/kg/injection, schedule: Q01DX009 (ip), vehicle: saline 110 % of control
